Source: patent publication US9580465B2, “Tissue protective peptides and peptide analogs for preventing and treating diseases and disorders associated with tissue damage” (ARAIM PHARMACEUTICALS, INC., priority 2008, dated 2017)
Entries after “also recorded” stand apart in the source; their conditions may differ. Square brackets hold non-standard residues; d marks the D form. pGlu = O=C1CC[C@@H](C(=O)O)N1

Key:
[1] = tested on: UT-7epo cells; assay: UT-7epo proliferation/survival assay of erythropoietic potency; assay type: cell-based, human; details: 5 pM to 50 nM, 48 h incubation, WST-I reagent; FIG. 1
Experimental: The cells were maintained in 75 cm^2 flasks with 20 ml of medium/flask in a humidified incubator with 5% CO2 at 37° C. for 48 h. On day two of the assay, i.e., at 48 h, the cells were transferred from the flask into a 50-ml conical tube and centrifuged at 1,000 rpm for 5 minutes at room temperature. The supernatant was discarded and the cells were washed two times with 10 ml of starvation media (3% donor calf serum, 4 mM L-glutamine). The cells were then re-suspended in starvation media, using up and down pipette action to obtain a single cell suspension. The re-suspended cells were diluted with starvation media to obtain a density of 4×10^5 cells/ml, and plated at a total culture volume of 10 ml per 25 cm^2 flask. Following a 4 h incubation, the cells were again transferred to a 50-ml conical tube.
A series of 10 fold dilutions in RPMI 1640 medium containing 3% serum was used to generate concentrations of test compounds from 5 pM to 50 nM. Following a further for 48 h incubation, a solution of […] WST-I Cell Proliferation Reagent (Roche) was added to each well, and incubated for 1 hour at 37° C. in CO2. After mixing for 1 minute, the plate was read in a plate reader (absorption at 450 nm, subtracted from background absorption at 650 nm).

[2] = tested on: 9 L/LacZ gliosarcoma cells; assay: Cortical tumor implant; assay type: in vivo, CD fisher rats; details: 30 μg/kg i.p. daily for 25 days following implantation; FIG. 12
Experimental: A cortical tumor implant study was conducted in accordance with the protocol of Lampson et al. Cancer Res. 53:176-82:1993 to determine the effect of Peptide ID on the growth of the tumor.
In accordance with the protocol, male CD fisher rats were anesthetized and their right scalp was shaved and washed with disinfectant. A small incision was then made in the scalp overlying the right temporal cerebral cortex. A 1 mm hole was drilled through the calvarium, without puncturing the dura matter. Under aseptic conditions, living 50,000 9 L/LacZ gliosarcoma cells in 5 μl was slowly injected through a 22 gauge needle attached to a precision Hamilton syringe. Bone wax was then applied to the trephanation site, the skin was sutured and a prophylactic dose of antibiotic was administered i.p. Control rats were provided with saline injections i.p. daily. The rats treated with Peptide ID received daily injections of 30 μg/kg i.p. daily for a period of 25 days. At 25 days following implantation, the animal was anesthetized and the brain perfused-fixed with 2% paraformaldehyde. The brain was then removed and cut on a brain matrix device into coronal sections 1 mm thick and the extent of tumor mass was determined by planimetric methodology.

[3] = In vivo assessment of erythropoietic activity, 28 days i.v. in rats; design: species or system Sprague Dawley rats; details: 0, 60, 180, 600 μg/kg per dose i.v. twice a day for 28 days; blood on day 29; FIG. 2
Experimental: To evaluate the erythropoietic activity of tissue protective peptides and peptide analogs, Peptide ID was administered intravenously twice a day to Sprague Dawley rats for 28 days. Nine male and nine female rats were assigned to groups 1-4 receiving 0, 60, 180, and 600 μg/kg per dose (0, 48, 143, and 477 nmol/kg, respectively) of Peptide ID in PBS by bolus intravenous administration from days 1-28, Blood samples to assay for hematological variables were collected on day 29. Hemoglobin concentration was determined by use of an automated analyzer (Keska Corporation).

Sequence: UEQLERALNSS ([pGlu]EQLERALNSS-OH; also: acetate/ammonium mixed salt) [Peptide ID, first glutamine replaced with pyroglutamate]
- proliferation of UT-7 EPO cells (erythropoietic activity) [1]: no erythropoeitic activity; also recorded: did not result in proliferation of the cells
- relative volume of cortical tumor [2]: no growth in the tumor volume; also recorded: no increase in the relative volume of the tumor
- hemoglobin concentration [3]: no difference in any of the groups
